Results from ChEMBL document CHEMBL1143664, “New antitumoral acetogenin 'Guanacone type' derivatives: isolation and bioactivity. Molecular dynamics simulation of diacetyl-guanacone” (Bioorg Med Chem, 2007).

Tests used:
[1] = Inhibition of NADH-ubiquinone oxidoreductase assessed by NADH oxidase activity in beef heart submitochondrial particles; parameters: species or system Bos taurus
MCF7 = assay: Antitumor activity against human MCF7 cells after 24 hrs by MTT assay; format: functional; details: MCF7, 24 h, read-out: ED50 (the source's name)
HepG2 = assay: Antitumor activity against human HepG2 cells after 24 hrs by MTT assay; format: functional; details: HepG2, 24 h, read-out: ED50 (the source's name)
HT-29 = assay: Antitumor activity against human HT29 cells after 24 hrs by MTT assay; format: functional; details: HT-29, 24 h, read-out: ED50 (the source's name)
A549 = assay: Antitumor activity against human A549 cells after 24 hrs by MTT assay; format: functional; details: A549, 24 h, read-out: ED50 (the source's name)
[2] = Antitumor activity against human MES-SA cells after 24 hrs by MTT assay; format: functional; details: read-out: ED50 (the source's name)
[3] = Antitumor activity against doxorubucin-resistant human MES-SA/Dx5 cells by MTT assay after 24 hrs; format: functional; details: MES-SA/Dx5, 24 h, read-out: ED50 (the source's name)

Compound	IC50 [1] [µM]	EC50 (MCF7) [µM]	EC50 (HepG2) [µM]	EC50 (HT-29) [µM]	EC50 (A549) [µM]	EC50 [2] [µM]	EC50 [3] [µM]
C=C(C)[C@H]1Cc2c(ccc3c2O[C@@H]2COc4cc(OC)c(OC)cc4[C@@H]2C3=O)O1 [ROTENONE]	0.0051	161	15	202	26	147	214
CCCCCCCCCC[C@H](O)[C@H]1CC[C@H]([C@H]2CC[C@H]([C@@H](CCCCC(=O)CCCCCCCC3=C[C@H](C)OC3=O)OC(C)=O)O2)O1	0.0028	66	51	169	101	76	97

The next compounds have a lower EC50 (MCF7) than those just listed; values first:

IC50 [1] [µM]	EC50 (MCF7) [µM]	EC50 (HepG2) [µM]	EC50 (HT-29) [µM]	EC50 (A549) [µM]	Compound	EC50 [2] [µM]	EC50 [3] [µM]
0.0034	50	18	154	192	CCCCCCCCCC[C@H](OC(C)=O)[C@H]1CC[C@H]([C@H]2CC[C@H]([C@H](O)CCCCC(=O)CCCCCCCC3=C[C@H](C)OC3=O)O2)O1	43	83
0.0012	39	11	71	148	CCCCCCCCCC[C@H](O)[C@H]1CC[C@H]([C@H]2CC[C@H]([C@H](O)CCCCC(=O)CCCCCCCC3=C[C@H](C)OC3=O)O2)O1 [GUANACONE]	22	52
0.0004	29	9	195	60	CCCCCCCCCC[C@H](OC(C)=O)[C@H]1CC[C@H]([C@H]2CC[C@H]([C@@H](CCCCC(=O)CCCCCCCC3=C[C@H](C)OC3=O)OC(C)=O)O2)O1	28	56
–	8	102	274	152	COc1cccc2c1C(=O)c1c(O)c3c(c(O)c1C2=O)C[C@@](O)(C(=O)CO)C[C@@H]3O[C@H]1C[C@H](N)[C@H](O)[C@H](C)O1 [DOXORUBICIN]	173	> 500
